Drawing on PMC11005471 (Frontiers in Veterinary Science, 2024), this text covers Km for 2 compounds.

Test [1] concerns Bbp. It counts as biochemical, Brucella suis.
Test [2] deals with Bbp. It counts as biochemical, Brucella suis. This is another data set of the same source.

Read-outs that look alike come from different tables or passages of the source.

Take `O=P(O)(O)OC[C@H]1OC(O)(COP(=O)(O)O)[C@@H](O)[C@@H]1O` (some centres unmarked) [F1,6bP]: the Km (usually the concentration of substrate that gives half-maximal velocity) in test [1] turned out to be 53.2 ± 6.3 µM.

In the case of `O=C(COP(=O)(O)O)[C@@H](O)[C@H](O)[C@H](O)[C@H](O)COP(=O)(O)O` [S1,7bP], the Km in test [2] worked out at 13.9 ± 3.2 µM.
